Experimental findings from US10428080B2, “TBK/IKK inhibitor compounds and uses thereof” (Merck Patent GmbH, priority 2015, dated 2019) are described below.

A word on the IC50: it is the point on the concentration scale where inhibition reaches its midpoint.

In one experiment the target is T1, TBK1 (Homo sapiens, UniProt Q9UHD2).
T1 sequence (Q9UHD2 1-729): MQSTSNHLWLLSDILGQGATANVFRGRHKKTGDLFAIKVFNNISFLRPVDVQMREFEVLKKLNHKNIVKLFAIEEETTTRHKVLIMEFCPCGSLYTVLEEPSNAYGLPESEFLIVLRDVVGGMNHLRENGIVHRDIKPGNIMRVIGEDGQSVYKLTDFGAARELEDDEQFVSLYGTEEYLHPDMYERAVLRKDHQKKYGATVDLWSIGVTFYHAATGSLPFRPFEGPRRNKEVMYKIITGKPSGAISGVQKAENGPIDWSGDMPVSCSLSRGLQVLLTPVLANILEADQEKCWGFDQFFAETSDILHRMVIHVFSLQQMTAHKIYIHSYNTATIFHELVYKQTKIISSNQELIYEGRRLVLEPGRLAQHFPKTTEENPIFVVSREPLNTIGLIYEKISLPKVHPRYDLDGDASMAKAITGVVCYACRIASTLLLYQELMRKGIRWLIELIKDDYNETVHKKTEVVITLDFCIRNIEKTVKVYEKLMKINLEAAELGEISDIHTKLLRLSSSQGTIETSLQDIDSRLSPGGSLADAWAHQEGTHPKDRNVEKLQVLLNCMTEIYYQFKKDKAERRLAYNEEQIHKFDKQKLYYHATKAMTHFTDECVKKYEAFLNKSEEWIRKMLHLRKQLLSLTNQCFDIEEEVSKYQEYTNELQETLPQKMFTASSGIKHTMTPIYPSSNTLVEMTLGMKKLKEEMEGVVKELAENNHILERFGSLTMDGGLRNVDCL
Put plainly: TBK Biochemical Assay. The note with it: read-out: TBK1 IC50. Summed up: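 Caliper LabChip mobility-shift readout of substrate and product after 90 min of TBK1 reaction at 25° C and stop-buffer addition. Compounds tested in 1:4 serial dilution over 10 points from 30 uM final at 1% DMSO; staurosporine 10 uM final defines full inhibition.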

The next experiment addresses T2, IKKε (Homo sapiens, UniProt Q14164).
T2 sequence (Q14164 1-716): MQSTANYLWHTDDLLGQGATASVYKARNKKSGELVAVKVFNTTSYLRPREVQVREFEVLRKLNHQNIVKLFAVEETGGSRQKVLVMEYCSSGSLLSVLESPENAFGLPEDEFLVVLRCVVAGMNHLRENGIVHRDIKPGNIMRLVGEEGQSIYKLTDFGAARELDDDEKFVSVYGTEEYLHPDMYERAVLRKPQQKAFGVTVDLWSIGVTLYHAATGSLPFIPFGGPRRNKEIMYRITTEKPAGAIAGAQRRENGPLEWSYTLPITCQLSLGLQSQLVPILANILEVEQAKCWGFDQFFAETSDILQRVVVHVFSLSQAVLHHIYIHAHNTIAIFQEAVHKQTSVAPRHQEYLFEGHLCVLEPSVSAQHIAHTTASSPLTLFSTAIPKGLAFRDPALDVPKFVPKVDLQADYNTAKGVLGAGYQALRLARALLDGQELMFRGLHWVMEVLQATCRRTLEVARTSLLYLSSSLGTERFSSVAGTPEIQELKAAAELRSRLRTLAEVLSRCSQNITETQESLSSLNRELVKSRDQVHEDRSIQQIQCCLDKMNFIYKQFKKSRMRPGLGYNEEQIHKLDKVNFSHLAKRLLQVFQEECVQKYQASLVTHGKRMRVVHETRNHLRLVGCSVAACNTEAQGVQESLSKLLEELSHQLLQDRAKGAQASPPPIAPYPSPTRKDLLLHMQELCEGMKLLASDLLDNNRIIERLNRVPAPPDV
Put plainly: IKKe Biochemical Assay. The note with it: read-out: IKKε IC50. Summed up:
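Activity was measured as mobility-shift separation of phosphorylated from unphosphorylated substrate on a LabChip EZ Reader. Compound was titrated from 30 uM final in 10 points, 1:4 steps, with 1% DMSO, and enzyme plus substrate reacted 90 min at 25° C before stop buffer. Control wells held 10 uM staurosporine.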

Experiment [1] concerns phosphorylation of the IRF-3 protein in MDA-MB-468 cells. Put plainly: pIRF3 immunocytochemistry cell based assay. The note with it: Homo sapiens; MDA-MB-468 cells, Poly(I:C) stimulation; read-out: pIRF3 IC50. As to the method:
The purpose of the pIRF3 immunocytochemistry cell based assay was to identify small molecules which modulates TBK/IKKe kinase activity through on target substrate phosphorylation of the IRF-3 protein. On the first day of the experiment, MDA-MB-468 cells were plated in 384 well, black, clear-bottom, Poly D lysine coated plates at a density of 5000 cells/well in 45 ul of complete DMEM and allowed to adhere overnight. On the second day compounds were added to cells at a starting concentration of 10 uM with a serial dilution of 3-fold for a total of 10 points. The cells were incubated for 1 hr at 37° C. Cells were then stimulated with Poly(I:C) at a final concentration of 10 ug/ml, and were incubated for 2 hr at 37° C. Following the incubation, media was removed from the wells and the cells were fixed with 4% PFA for 15 min at RT. Cells were washed at least 3 times with PBS, and then permeabilized with ice-cold methanol for 10 min at RT. The washing step was repeated and the cells were then blocked using 10% goat serum/1% BSA, made up in PBS and allowed to incubate at RT for 1 hr. The cells were washed again and then treated with an anti-pIRF3 antibody at 4° C. overnight (1:250 dilution of Abcam ab76493 in PBS containing 1% BSA). On the third day the primary antibody was washed off and pIRF3 was detected by adding the secondary antibody conjugated to AlexaFluor488 (1:200 dilution of secondary antibody in PBS containing 1% BSA) for 1 hr at RT. Cells were washed and then counterstained with PI/RNase staining buffer for 15 min at RT and read on the Acumen Explorer laser scanning cytometer. The percentage of phosphorylation of the IRF-3 protein was calculated using the following algorithm, a modified version of the mean half width intensity (pIRF3 staining)/(PI staining or # of cells)×100%). IC50 curves were generated using the Genedata software.

Counter-ions that a name gives are not always drawn.

For `COc1cc(C(=O)N2CCCC3(CCNC3)C2)ccc1-c1cc2nccc(-c3ccc(OC4CCOCC4)c(C#N)c3)c2o1` (stereo not drawn) [Compound 25, 5-{2-[4-(2,7-Diaza-spiro[4.5]decane-7-carbonyl)-2-methoxy-phenyl]-furo[3,2-b]pyridin-7-yl}-2-(tetrahydro-pyran-4-yloxy)-benzonitrile], the IC50 on TBK1 is under 0.1 µM; at IKKε, under 0.1 µM; in experiment [1] it was 0.1 to 1 µM.

Turning to `COc1cc(C(=O)N2CCCCC2)ccc1-c1cc2nccc(-c3ccc(OC4CCOCC4)c(C#N)c3)c2o1` [Compound 27, 5-{2-[2-Methoxy-4-(piperidine-1-carbonyl)-phenyl]-furo[3,2-b]pyridin-7-yl}-2-(tetrahydro-pyran-4-yloxy)-benzonitrile], the half-maximal inhibitory concentration (IC50) was under 0.1 µM on TBK1, under 0.1 µM at IKKε and 0.1 to 1 µM in experiment [1].

Turning to `COc1cc(C(=O)NC2CN(C)C2)ccc1-c1cc2nccc(-c3ccc(OC4CCOCC4)c(C#N)c3)c2o1` [Compound 28, 4-{7-[3-Cyano-4-(tetrahydro-pyran-4-yloxy)-phenyl]-furo[3,2-b]pyridin-2-yl}-3-methoxy-N-(1-methyl-azetidin-3-yl)-benzamide], the IC50 (at TBK1; at IKKε; in experiment [1]) was under 0.1 µM throughout.

As for `COc1cc(C(=O)N2CC3(CCCN3)C2)ccc1-c1cc2nccc(-c3ccc(OC4CCOCC4)c(C#N)c3)c2o1` [Compound 29, 5-{2-[4-(2,5-Diaza-spiro[3.4]octane-2-carbonyl)-2-methoxy-phenyl]-furo[3,2-b]pyridin-7-yl}-2-(tetrahydro-pyran-4-yloxy)-benzonitrile hydrochloride], the half-inhibitory concentration (IC50) on TBK1 is under 0.1 µM; on IKKε it was under 0.1 µM; in experiment [1] it was 0.1 to 1 µM.

For the molecule `COc1cc(C(=O)N(C)C)ccc1-c1cc2nccc(-c3ccc(OC4CCOCC4)c(C#N)n3)c2o1` [Compound 31, 4-{7-[6-Cyano-5-(tetrahydro-pyran-4-yloxy)-pyridin-2-yl]-furo[3,2-b]pyridin-2-yl}-3-methoxy-N,N-dimethyl-benzamide], the half-maximal inhibitory concentration (IC50) (at TBK1; on IKKε; in experiment [1]) was under 0.1 µM in each case.

On to `COc1cc(C(=O)N2C[C@H]3C[C@@H](O)C[C@H]3C2)ccc1-c1cc2nccc(-c3ccc(OC4CCOCC4)c(C#N)c3)c2o1` [Compound 32, 5-{2-[4-((3aR,5R,6aS)-5-Hydroxy-hexahydro-cyclopenta[c]pyrrole-2-carbonyl)-2-methoxy-phenyl]-furo[3,2-b]pyridin-7-yl}-2-(tetrahydro-pyran-4-yloxy)-benzonitrile], for which the IC50 (at TBK1; on IKKε; in experiment [1]) was under 0.1 µM throughout.

Turning to `COc1cc(C(=O)N2CC[C@@H](N(C)C)C2)ccc1-c1cc2nccc(-c3ccc(N4CC[C@H](F)C4)c(C#N)c3)c2o1` [Compound 33, 5-{2-[4-((R)-3-Dimethylamino-pyrrolidine-1-carbonyl)-2-methoxy-phenyl]-furo[3,2-b]pyridin-7-yl}-2-((S)-3-fluoro-pyrrolidin-1-yl)-benzonitrile], the results for the IC50 (on TBK1; at IKKε; in experiment [1]) were under 0.1 µM, under 0.1 µM and 0.1 to 1 µM, respectively.

Turning to `COc1cc(C(=O)N2CCC3(CC2)NCNC3=O)ccc1-c1cc2nccc(-c3ccc(NC4CCOCC4)c(C#N)c3)c2o1` [Compound 34, 5-{2-[2-Methoxy-4-(4-oxo-1,3,8-triaza-spiro[4.5]decane-8-carbonyl)-phenyl]-furo[3,2-b]pyridin-7-yl}-2-(tetrahydro-pyran-4-ylamino)-benzonitrile], the figures for the IC50 (on TBK1; at IKKε; in experiment [1]) were under 0.1 µM, under 0.1 µM and 0.1 to 1 µM, respectively.

For `COc1cc(C(=O)N(C)C)ccc1-c1cc2nccc(-c3ccc(N4CCC(F)C4)c(C#N)c3)c2o1` (stereo not drawn) [Compound 35], the half-inhibitory concentration (IC50) on TBK1 is under 0.1 µM; at IKKε, under 0.1 µM; in experiment [1], 0.1 to 1 µM.

With `COc1cc(C(=O)N(C)C)ccc1-c1cc2nccc(-c3ccc(NCC4CCOC4)c(C#N)c3)c2o1` (stereo not drawn) [Compound 36], the IC50 at TBK1 was under 0.1 µM; on IKKε, under 0.1 µM; in experiment [1], 0.1 to 1 µM.

For the molecule `COc1cc(C(=O)N2CCCC2)ccc1-c1cc2nccc(-c3ccc(OC4CCOCC4)c(C#N)c3)c2o1` [Compound 37, 5-{2-[2-Methoxy-4-(pyrrolidine-1-carbonyl)-phenyl]-furo[3,2-b]pyridin-7-yl}-2-(tetrahydro-pyran-4-yloxy)-benzonitrile], the figures for the IC50 (on TBK1; on IKKε; in experiment [1]) were under 0.1 µM, under 0.1 µM and 0.1 to 1 µM, respectively.

Consider `COc1cc(C(=O)N2CC(CO)C2)ccc1-c1cc2nccc(-c3ccc(OC4CCOCC4)c(C#N)c3)c2o1` [Compound 38, 5-{2-[4-(3-Hydroxymethyl-azetidine-1-carbonyl)-2-methoxy-phenyl]-furo[3,2-b]pyridin-7-yl}-2-(tetrahydro-pyran-4-yloxy)-benzonitrile], for which the IC50 at TBK1 is under 0.1 µM; on IKKε, under 0.1 µM; in experiment [1], 0.1 to 1 µM.

With `COc1cc(C(=O)N2CC(O)C2)ccc1-c1cc2nccc(-c3ccc(OC4CCOCC4)c(C#N)c3)c2o1` [Compound 39, 5-{2-[4-(3-Hydroxy-azetidine-1-carbonyl)-2-methoxy-phenyl]-furo[3,2-b]pyridin-7-yl}-2-(tetrahydro-pyran-4-yloxy)-benzonitrile], the half-inhibitory concentration (IC50) on TBK1 is under 0.1 µM; at IKKε, under 0.1 µM; in experiment [1], 0.1 to 1 µM.

For the molecule `COc1cc(C(N)=O)ccc1-c1cc2nccc(-c3ccc(OC4CCOCC4)c(C#N)c3)c2o1` [Compound 40, 4-{7-[3-Cyano-4-(tetrahydro-pyran-4-yloxy)-phenyl]-furo[3,2-b]pyridin-2-yl}-3-methoxy-benzamide], the IC50 is under 0.1 µM at TBK1, under 0.1 µM on IKKε and 0.1 to 1 µM in experiment [1].

For the molecule `COc1cc(C(=O)N2CC[C@@H](O)C2)ccc1-c1cc2nccc(-c3ccc(OC4CCOCC4)c(C#N)c3)c2o1` [Compound 43, 5-{2-[4-((R)-3-Hydroxy-pyrrolidine-1-carbonyl)-2-methoxy-phenyl]-furo[3,2-b]pyridin-7-yl}-2-(tetrahydro-pyran-4-yloxy)-benzonitrile], the results for the 50% inhibitory concentration (IC50) (on TBK1; at IKKε; in experiment [1]) were under 0.1 µM, under 0.1 µM and 0.1 to 1 µM, respectively.
